# Measurements from article PMC4028821 (Chemical communications (Cambridge, England), 2014).
# Molecular target: PARP1 (Homo sapiens, UniProt P09874)
# Test: enzyme inhibition assay with recombinant human PARP1
# Format: biochemical
# Chain of PARP1 (P09874 2-1014): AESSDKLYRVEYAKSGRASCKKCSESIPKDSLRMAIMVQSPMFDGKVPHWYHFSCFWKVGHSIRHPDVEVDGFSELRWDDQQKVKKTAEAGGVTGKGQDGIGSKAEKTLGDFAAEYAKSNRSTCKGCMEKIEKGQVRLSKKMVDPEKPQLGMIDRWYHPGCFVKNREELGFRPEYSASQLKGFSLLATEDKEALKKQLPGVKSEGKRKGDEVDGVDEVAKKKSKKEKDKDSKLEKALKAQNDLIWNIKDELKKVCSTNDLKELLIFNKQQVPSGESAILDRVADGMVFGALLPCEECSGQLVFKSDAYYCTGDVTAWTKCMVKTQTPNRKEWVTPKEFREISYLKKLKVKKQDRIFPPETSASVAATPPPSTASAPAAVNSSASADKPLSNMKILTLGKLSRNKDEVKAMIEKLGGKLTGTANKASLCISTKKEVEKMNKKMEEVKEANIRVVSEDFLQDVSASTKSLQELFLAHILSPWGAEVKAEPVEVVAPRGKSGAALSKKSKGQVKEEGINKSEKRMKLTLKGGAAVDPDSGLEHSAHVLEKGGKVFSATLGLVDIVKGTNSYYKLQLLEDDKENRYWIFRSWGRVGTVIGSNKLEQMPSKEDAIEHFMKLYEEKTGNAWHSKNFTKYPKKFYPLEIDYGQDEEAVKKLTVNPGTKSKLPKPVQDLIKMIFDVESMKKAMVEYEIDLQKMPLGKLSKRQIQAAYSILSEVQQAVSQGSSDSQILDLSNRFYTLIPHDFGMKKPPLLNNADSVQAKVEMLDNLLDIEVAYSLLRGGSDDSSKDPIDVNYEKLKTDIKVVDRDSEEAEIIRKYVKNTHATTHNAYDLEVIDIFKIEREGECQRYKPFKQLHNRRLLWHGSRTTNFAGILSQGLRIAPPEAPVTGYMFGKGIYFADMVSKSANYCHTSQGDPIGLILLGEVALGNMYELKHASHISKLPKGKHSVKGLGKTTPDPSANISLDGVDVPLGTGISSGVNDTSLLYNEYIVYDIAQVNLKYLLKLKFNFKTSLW
row,Substance,IC50 [nM]
1,Olaparib-SiR-Me [compound 6],99.2
2,Olaparib-SiR-COOH [compound 10],100
